Entries after “also recorded” stand apart in the source; their conditions may differ. Where two headings read alike, the source gives them in different places.
Tests used:
[1] = molecular target: T1, catalytic domain of Usp9x (Usp9xCD) (Homo sapiens, UniProt Q93008); assay: Usp9xCD Ub-AMC enzyme assay; type: biochemical; details: screen of 210 structures
T1 construct: DNA corresponding to amino acids 1553-1960 of human Usp9x; His6-Smt3 (SUMO) fusion tag, ULP1-cleavable (N, cleaved yes); made in house; host or cells: E. coli
T1 sequence (Q93008 1553-1960): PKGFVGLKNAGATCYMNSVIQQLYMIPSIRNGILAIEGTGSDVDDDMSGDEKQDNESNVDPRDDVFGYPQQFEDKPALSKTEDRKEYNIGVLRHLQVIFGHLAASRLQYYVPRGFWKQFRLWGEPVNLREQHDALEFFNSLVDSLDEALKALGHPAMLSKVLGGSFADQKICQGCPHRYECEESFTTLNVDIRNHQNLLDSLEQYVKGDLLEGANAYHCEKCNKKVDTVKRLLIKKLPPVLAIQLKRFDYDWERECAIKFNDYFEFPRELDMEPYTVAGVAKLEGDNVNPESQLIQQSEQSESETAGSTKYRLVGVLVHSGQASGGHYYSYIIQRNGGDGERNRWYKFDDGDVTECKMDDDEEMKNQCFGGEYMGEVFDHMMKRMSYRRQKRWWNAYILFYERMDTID
Procedure: A series of chemical modifications were initiated to increase our structure activity relationship (SAR) analysis of inhibitors. […] The DNA was cloned into a ULP1-protease cleavable N-terminal His6-Smt3-fusion tag expression vector, derived from pET-28. Protein expression was induced at OD600 2.0, in TB media with Kanamycin overnight at 16° C. Cells were harvested and flash frozen before use. […] Protein was concentrated to roughly 20-40 mg/ml before aliquots were flash-frozen. All steps were performed in the presence of reducing agents, either BME, DTT, or TCEP.
Purified recombinant enzyme in buffer containing 2 mM DTT was buffer exchanged into 25 mM Tris-HCl, 50 mM NaCl and 1 mg/ml BSA using a spin column. […] IC50 values were estimated by integrating the slope of each reaction using GraphPad 6.
Two hundred and ten (210) novel chemical structures were screened for Usp9xCD inhibitory activity using this assay. […] Fluorescent scans were used to assess Usp9xCD inhibitory activity in this enzyme assay for all compounds of interest. Each assay was performed in duplicate and the linear region of each reaction curve was used to calculate IC50 values for Usp9xCD inhibition which are tabulated in Table 1.

Usp9x [2] = molecular target: T2, Usp9x (Homo sapiens, UniProt Q93008); assay: Usp9x activity, Mcl-1 and PARP in tumors extracted from treated mice; type: in vivo, NSG mice; parameters: from tissue; host or cells: MM1.S xenograft tumour extracted from NSG mice; details: 15 mg/kg, tumors extracted one hour after last injection
T2 sequence (Q93008 whole entry): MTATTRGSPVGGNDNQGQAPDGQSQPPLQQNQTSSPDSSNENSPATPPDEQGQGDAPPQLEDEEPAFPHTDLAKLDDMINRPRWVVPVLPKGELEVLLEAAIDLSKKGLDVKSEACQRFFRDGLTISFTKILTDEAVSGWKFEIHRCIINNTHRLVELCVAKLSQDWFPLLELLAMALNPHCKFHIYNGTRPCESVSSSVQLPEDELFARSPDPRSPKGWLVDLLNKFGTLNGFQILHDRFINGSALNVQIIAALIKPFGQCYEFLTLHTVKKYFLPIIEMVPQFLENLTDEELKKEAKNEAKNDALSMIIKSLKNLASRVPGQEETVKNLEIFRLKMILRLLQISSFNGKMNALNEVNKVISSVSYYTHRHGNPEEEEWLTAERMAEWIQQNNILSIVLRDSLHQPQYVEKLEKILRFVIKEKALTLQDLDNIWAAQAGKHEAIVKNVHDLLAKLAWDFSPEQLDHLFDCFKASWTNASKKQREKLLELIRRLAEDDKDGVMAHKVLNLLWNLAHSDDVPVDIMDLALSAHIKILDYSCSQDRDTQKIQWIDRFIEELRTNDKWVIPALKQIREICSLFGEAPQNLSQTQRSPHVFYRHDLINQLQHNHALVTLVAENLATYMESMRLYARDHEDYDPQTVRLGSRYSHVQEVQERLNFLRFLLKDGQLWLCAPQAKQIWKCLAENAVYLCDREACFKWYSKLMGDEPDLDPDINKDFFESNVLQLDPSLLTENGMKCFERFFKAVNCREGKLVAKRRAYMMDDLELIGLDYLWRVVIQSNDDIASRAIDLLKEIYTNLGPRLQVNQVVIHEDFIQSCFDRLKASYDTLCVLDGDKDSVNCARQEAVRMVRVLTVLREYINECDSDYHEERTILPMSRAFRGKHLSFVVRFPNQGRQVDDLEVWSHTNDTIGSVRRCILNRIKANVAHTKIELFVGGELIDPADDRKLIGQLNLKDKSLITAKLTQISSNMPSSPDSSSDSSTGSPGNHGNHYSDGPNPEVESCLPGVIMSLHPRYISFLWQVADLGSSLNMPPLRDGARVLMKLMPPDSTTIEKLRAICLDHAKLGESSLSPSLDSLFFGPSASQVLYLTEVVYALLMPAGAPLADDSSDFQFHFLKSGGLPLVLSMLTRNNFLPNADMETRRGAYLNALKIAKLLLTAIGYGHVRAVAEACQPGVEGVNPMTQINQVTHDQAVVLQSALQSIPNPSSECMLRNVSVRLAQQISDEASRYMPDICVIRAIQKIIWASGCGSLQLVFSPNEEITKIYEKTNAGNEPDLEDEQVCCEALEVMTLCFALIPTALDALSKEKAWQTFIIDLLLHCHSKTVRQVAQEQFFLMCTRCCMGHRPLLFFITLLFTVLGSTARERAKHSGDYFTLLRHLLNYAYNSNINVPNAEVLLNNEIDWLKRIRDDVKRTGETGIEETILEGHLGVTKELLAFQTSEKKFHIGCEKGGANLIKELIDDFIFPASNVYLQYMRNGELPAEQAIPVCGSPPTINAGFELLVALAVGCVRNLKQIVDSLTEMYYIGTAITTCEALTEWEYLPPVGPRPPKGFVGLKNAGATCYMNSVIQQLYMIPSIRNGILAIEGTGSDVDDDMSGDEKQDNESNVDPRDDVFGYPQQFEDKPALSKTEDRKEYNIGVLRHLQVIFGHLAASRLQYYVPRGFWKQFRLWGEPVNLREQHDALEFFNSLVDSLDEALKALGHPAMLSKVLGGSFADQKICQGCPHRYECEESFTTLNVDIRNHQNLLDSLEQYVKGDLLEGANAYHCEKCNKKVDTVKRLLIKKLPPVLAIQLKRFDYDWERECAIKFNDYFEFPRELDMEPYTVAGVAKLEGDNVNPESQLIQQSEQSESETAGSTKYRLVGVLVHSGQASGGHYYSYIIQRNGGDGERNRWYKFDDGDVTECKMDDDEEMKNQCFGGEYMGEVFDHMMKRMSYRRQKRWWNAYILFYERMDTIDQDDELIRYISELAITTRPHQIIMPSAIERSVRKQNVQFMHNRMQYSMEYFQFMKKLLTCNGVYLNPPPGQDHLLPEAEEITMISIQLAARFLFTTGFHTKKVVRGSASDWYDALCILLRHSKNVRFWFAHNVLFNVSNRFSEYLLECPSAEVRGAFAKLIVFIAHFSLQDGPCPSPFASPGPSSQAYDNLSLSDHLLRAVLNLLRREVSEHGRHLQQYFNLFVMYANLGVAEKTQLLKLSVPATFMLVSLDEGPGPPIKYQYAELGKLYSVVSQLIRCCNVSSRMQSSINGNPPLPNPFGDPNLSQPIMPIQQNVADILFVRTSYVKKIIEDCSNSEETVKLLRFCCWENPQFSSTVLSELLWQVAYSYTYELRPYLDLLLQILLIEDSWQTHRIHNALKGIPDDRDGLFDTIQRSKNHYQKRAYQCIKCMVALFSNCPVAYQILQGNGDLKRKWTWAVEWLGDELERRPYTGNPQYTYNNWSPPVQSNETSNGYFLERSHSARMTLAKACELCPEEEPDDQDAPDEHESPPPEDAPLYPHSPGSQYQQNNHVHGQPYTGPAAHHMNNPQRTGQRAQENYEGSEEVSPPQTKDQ
Procedure: To analyze that potential, mice were euthanized one hour after their last injection and tumors were extracted, photographed and flash-frozen on dry ice. Tumor tissue was sheared in liquid nitrogen, ground to a powder with a mortar and pestle and proteins extracted to assess Usp9x activity in 20 μg of protein from each tumor specimen. Tumors extracted from control and 15 mg/kg G9 treated mice were assessed for Usp9x activity as described above. […] Also shown are the effects of treatment on Usp9x and Usp24 protein, the latter a DUB closely related to Usp9x. The effect of G9 on the Usp9x substrate Mcl-1, and on cleavage of caspase substrate PARP, are also shown.

murine norovirus = assay: antiviral screen against murine norovirus in macrophages; type: cell-based; details: RAW cells, Swiss Webster and Balb/c bone marrow derived macrophages, FIG. 8
Text: G9 was screened in RAW cells, Swiss Webster bone marrow derived macrophages and Balb/c bone marrow derived macrophages, compared to vehicle (DMSO), prior compound WP1130 and compound VM030. […] VM030 has a structure of […]

Usp24 = Usp24 (Homo sapiens, UniProt Q9UPU5); assay: Usp24 inhibition
Sequence of Usp24 (Q9UPU5 whole entry): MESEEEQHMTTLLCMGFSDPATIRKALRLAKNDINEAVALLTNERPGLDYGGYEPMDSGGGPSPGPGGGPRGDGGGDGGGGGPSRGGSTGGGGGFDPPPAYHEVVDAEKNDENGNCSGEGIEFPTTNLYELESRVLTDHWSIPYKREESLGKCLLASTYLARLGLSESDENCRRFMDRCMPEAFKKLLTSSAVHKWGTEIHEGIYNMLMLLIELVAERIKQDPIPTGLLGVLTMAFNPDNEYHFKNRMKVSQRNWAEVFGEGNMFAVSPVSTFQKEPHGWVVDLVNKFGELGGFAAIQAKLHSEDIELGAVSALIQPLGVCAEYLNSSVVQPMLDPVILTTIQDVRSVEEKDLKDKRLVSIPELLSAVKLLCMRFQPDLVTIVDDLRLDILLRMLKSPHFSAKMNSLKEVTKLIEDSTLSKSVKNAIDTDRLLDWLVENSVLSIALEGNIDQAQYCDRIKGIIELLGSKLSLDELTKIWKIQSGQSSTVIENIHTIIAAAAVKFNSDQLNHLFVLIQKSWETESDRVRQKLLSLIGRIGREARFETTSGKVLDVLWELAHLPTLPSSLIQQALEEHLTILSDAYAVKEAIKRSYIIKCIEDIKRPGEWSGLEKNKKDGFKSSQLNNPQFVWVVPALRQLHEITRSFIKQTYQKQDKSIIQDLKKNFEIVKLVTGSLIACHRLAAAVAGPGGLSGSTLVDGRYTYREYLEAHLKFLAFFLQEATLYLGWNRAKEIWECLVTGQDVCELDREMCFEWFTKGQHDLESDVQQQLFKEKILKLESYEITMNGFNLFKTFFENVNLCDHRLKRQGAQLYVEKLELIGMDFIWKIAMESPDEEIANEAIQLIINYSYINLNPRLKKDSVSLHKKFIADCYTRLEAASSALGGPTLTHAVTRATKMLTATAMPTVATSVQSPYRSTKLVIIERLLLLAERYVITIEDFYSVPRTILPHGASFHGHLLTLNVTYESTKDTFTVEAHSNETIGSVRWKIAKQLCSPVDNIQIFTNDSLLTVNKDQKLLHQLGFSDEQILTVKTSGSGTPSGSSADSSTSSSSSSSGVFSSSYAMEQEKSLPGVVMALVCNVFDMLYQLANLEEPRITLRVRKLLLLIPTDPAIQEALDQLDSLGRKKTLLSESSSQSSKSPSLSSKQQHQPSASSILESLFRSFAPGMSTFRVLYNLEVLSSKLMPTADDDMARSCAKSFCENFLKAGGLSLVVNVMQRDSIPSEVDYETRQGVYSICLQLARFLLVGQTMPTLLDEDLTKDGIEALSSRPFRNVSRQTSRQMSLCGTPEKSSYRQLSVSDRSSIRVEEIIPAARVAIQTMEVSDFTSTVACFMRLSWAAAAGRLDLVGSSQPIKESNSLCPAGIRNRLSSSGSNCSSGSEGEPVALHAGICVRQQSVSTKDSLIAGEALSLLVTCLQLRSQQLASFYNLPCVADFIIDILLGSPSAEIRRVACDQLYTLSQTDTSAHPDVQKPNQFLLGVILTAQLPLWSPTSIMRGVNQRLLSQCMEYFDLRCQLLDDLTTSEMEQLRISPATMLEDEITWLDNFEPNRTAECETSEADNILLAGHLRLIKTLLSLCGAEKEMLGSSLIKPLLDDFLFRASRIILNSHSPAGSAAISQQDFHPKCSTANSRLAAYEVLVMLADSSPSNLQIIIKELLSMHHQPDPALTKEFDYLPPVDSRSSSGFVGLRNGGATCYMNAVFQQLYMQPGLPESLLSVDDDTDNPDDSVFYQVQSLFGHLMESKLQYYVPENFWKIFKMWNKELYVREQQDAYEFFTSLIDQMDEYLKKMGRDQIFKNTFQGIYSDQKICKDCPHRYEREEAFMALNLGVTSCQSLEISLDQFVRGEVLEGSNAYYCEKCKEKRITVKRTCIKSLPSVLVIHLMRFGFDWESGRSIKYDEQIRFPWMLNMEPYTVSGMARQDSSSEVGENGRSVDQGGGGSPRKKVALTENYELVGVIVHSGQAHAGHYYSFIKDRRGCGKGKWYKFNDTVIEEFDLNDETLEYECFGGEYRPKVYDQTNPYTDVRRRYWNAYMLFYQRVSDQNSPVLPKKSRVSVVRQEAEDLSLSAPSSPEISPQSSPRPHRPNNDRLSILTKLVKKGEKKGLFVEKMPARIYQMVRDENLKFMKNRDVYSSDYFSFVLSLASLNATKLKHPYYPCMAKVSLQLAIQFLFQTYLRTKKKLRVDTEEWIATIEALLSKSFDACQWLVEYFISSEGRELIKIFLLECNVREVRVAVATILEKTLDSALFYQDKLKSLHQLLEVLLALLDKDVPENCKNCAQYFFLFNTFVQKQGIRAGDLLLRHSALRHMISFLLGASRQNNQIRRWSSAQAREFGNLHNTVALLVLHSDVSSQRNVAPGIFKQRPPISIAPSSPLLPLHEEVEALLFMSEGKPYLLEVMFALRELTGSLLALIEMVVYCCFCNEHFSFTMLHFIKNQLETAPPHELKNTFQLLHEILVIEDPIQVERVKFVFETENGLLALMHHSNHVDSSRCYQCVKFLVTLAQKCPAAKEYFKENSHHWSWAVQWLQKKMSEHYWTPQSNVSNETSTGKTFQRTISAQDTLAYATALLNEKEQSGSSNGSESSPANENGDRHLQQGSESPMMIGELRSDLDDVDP

[3] = system: p53, pStat3, pERK, NOXA, PARP, Bid; assay: signalling and apoptosis markers in A375 cells; type: cell-based
Text: Similar results were obtained in A375R Usp5 KD cells treated with a MEK inhibitor.

Usp9x [4] = molecular target: T2, Usp9x; assay: DUB activity (HA-Ub vinyl-sulfone labelling) in lysates of treated intact cells; type: cell-based; parameters: endogenous in cells; host or cells: Z138 lymphoma, MM1.S/MM1.ST myeloma, primary PCL cells, A375 and vemurafenib-resistant A375 melanoma; details: for inhibition at 5 µM: MM1.ST or PCL cells
Procedure: In brief, control and treated cells were lysed by sonication in DUB assay buffer [50 mM Tris-HCl (pH 7.5), 5 mM MgCl2, 250 mM sucrose, 1 mM PMSF, 1× Roche proteinase inhibitory cocktail] and 20 μg of protein from the supernatant fraction (after a 14,000×g spin) were incubated with 200 nM HA-Ub vinyl-sulfone (Boston Biochem) in a final volume of 20 μl. After 90 min at 37° C., reactions were stopped with the addition of 5×-sample buffer. DUB activity was detected by SDS-PAGE resolution of the protein followed by nitrocellulose membrane transfer and immunoblotting with anti-HA.
The time required for G9-mediated Usp9x inhibition in intact multiple myeloma (MM1.S) cells and primary tumor cells from a patient with plasma cell leukemia (PCL) was investigated. MM1.ST (FIG. 1, left) or PCL (FIG. 1, right) cells were treated with 5 μM of compound for the time indicated before Usp9x activity was assessed as described above.

Mcl-1, PARP = assay: Mcl-1 level and PARP cleavage in treated tumor cells; type: cell-based
[5] = vemurafenib sensitive and resistant A375 cells
[6] = Z138 lymphoma cells, 1.25, 2.5 and 5 μM, 4 hours

With CCCC(NC(=O)/C(C#N)=C/c1nc(Cl)ccc1Cl)c1ccc(OCCN2CCOCC2)cc1 (stereo not drawn) [Compound G9, (E)-2-Cyano-3-(3,6-dichloropyridin-2-yl)-N-(1-(4-(2-morpholinoethoxy)phenyl)butyl)acrylamide] the “Usp9xCD inhibitory activity compared to WP1130” value [1] was “superior inhibitors of Usp9xCD”, the “Mcl-1 protein levels in MM1.S tumors” value (Usp9x [2]) was “reduces Mcl-1 protein levels” and the “Usp9x DUB activity in MM1.S tumors” value (Usp9x [2]) was “reduces Usp9x DUB activity”. The “apoptosis (PARP cleavage) in MM1.S tumors” value (Usp9x [2]) was “activates apoptosis”, the “antiviral activity against murine norovirus” value (murine norovirus) was “exhibits antiviral activity against murine norovirus” and the Usp24 inhibition (Usp24) was “inhibited the DUB Usp24”. The “pERK, pStat3 and NOXA levels” value ([3]; A375R cells) was “reduced pERK, pStat3 and elevated NOXA levels”, the “PARP and Bid cleavage” value ([3]; A375R cells, combined with vemurafenib or 5FU) was “induced PARP and Bid cleavage” and the p53 levels [3, 5] was “increased p53 levels”. For the same molecule, the pStat3 inhibitory activity [3, 5] was “retained pStat3 inhibitory activity”, the Usp9x activity (Usp9x [4]; A375 melanoma cells and vemurafenib-resistant A375 variant) was “inhibition of Usp9x activity in either cell type; also recorded: reduced Usp5 (and Usp9x) activity in both cell types” and the inhibition at 5 µM (Usp9x [4]; 5 minutes, read-out: Usp9x activity inhibition) was > 80%. The inhibition at 5 µM (Usp9x [4]; 60 minute, read-out: Usp9x inhibition) was 100%, the “Usp9x activity in intact cells” value (Usp9x [4]; [6]) was “able to inhibit Usp9x activity in intact cells” and the Usp9x inhibition (Usp9x [4]; myeloma (MM1.S) cells, various concentrations, FIG. 10) was “inhibits Usp9x and Usp5”. The “caspase activity (PARP cleavage)” value (Mcl-1, PARP; MM1.ST cells, 5 μM) was “activation of caspase activity”, the Mcl-1 level (Mcl-1, PARP; MM1.ST or PCL cells, 5 μM) was “reduction in Mcl-1” and the “level of Mcl-1” value (Mcl-1, PARP; [6]) was “reduce the level of a downstream target of Usp9x”.

Reference: patent US9868736B2, “Deubiquitinase inhibitors and methods for use of the same” (THE REGENTS OF THE UNIVERSITY OF MICHIGAN, priority 2013, dated 2018)
